# Assay results as given in patent US20170007625A1, “NOVEL FORMULATIONS TO INHIBIT CYCLOOXYGENASE AND PRO-INFLAMMATORY CYTOKINE MEDIATED DISEASES” (Bioved Pharmaceuticals, Inc., priority 2008, published 2017).
# Columns and labels:
# [1] = test system: Adjuvant Arthritis (CFA induced); assay: Adjuvant induced arthritis in rats; assay type: in vivo
# Description: Arthritis or inflammation in the joint was induced by injection of Complete Freund's Adjuvant (CFA) into the left hind footpad of rats (animals). The animals were divided into three groups namely, Control, Ibuprofen and Formulation B. The role of Formulation B on specific cytokine blockade in the etiology of cachexia caused by Adjuvant Arthritis (AA) was evaluated. The parameter considered for the evaluation included paw thickness as a percent of paw thickness at Day 0 and percent body weight gain in animals. FIG. 4 illustrates paw thickness in animals as a percent of the paw thickness at Day 0 during the Adjuvant Induced Arthritis study in animals. Whereas, FIG. 5 illustrates percent body weight gain in animals during the Adjuvant Induced Arthritis study in animals.
# DSS induced colitis = assay: Dextran Sodium Sulfate (DSS) induced colitis; assay type: in vivo; conditions: oral DSS in mice
# Source text: Inflammation was induced in mice (animal) using oral administration of DSS.
SMILES,effect on cytokine inhibition ([1]; CFA into left hind footpad),"percent body weight gain (AA-associated weight loss) ([1]; compared to control animals, FIG. 5)",reduction in food intake (DSS induced colitis),body weight loss (DSS induced colitis; FIG. 13)
CC(C)Cc1ccc(C(C)C(=O)O)cc1 (stereo not shown) [Ibuprofen],did not show any effect,lost body weight significantly,–,–
O=C(O)c1cc(/N=N/c2ccc(S(=O)(=O)Nc3ccccn3)cc2)ccc1O [Sulfasalazine],–,–,recovered,improved the body weight loss
